The results in this text go back to US10071163B2, “Compositions and methods for selective delivery of oligonucleotide molecules to specific neuron types” (nLife Therapeutics, S.L., priority 2010, dated 2018).

Data set [1] relates to dopaminergic neurons of the substantia nigra pars compacta. Kind of data set: Confocal localization of Cy3 label in substantia nigra after ICV administration. The following applies: FIG. 17. In kind it is in vivo, mice. Here is the method: (§1) For the infusion of siRNAs, C57BV6Ncr1 male mice were deeply anesthetized with isofluorane and placed in a mouse adaptor (Stoelting ref. 51625) attached to a stereotaxic frame with digital display readout (David Kopf Instruments, model 940). […] The needle was left in the place for 3 min to avoid upward flow of the siRNA solution.
(§2) The mice were perfused with 4% PFA at two different time points, 1 and 3 hours post-administration of the siRNA. Brains were dissected and post-fixed in a solution of 4% PFA for 24 h at 4° C. Then brains were placed in a 30% sucrose solution for 48 h at 4° C. Brains were frozen in 2-methylbutane at −30 to −40° C. and stored at −80° C. Brains were sectioned in a cryostat Leica CM3050 S ([…]). Free-floating sections were washed and stored at 4° C. in 0.1 M PBS and 0.001% sodium azide.
(§3) Sections were washed in PBS, blocked with 2% goat serum and 0.1% Triton and incubated with anti-TH antibody (1:800 mouse) overnight at 4° C. After washing, sections were incubated with secondary antibody Alexa Fluor 647 anti-mouse (Invitrogen) for 1 h at room temperature. Finally sections were mounted with Dako Fluorescent Mounting Medium and analyzed using a confocal spectral microscope (FV 1000 Olympus). Pictures were generated using FV 10-ASW 1.7 Viewer.

The test system of data set [2] is noradrenergic neurons of the locus coeruleus. The data set can be described thus: Confocal localization of Cy3 label in locus coeruleus after ICV administration. Format: in vivo, mice. As to conditions: FIG. 18. Here is the method:
as §1, §2, §3

Data set [3] addresses T1, 5-HT1AR (Mus musculus, UniProt Q64264).
T1 sequence (Q64264 1-421): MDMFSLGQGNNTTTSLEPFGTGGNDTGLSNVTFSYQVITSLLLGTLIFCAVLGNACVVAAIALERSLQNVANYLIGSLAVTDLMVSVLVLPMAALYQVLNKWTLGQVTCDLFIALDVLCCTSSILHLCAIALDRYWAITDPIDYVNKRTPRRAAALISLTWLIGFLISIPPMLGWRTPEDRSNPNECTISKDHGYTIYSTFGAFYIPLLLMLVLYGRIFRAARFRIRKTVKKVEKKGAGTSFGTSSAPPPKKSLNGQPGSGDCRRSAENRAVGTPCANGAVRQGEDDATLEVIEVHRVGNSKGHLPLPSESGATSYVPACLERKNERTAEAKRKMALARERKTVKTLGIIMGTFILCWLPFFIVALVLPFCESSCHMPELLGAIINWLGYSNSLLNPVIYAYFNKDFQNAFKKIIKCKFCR
Kind of data set: 8-OH-DPAT-induced hypothermia after i.c.v. infusion into D3V. In kind it is in vivo, mice. The following applies: 30 μg/2.5 μl/1 day into D3V; 24 h after infusion; 8-OH-DPAT 1 mg/kg i.p.; FIG. 6. On the set-up: we used [^3H]8-OH-DPAT for the autoradiographic visualization of 5-HT1A receptor sites; from tissue; host or cells: mouse brain (dorsal raphe nucleus, prefrontal cortex, hippocampus): living animal or frozen 14 µm sections. Here is the method:
To test a functional measure of the pre-synaptic 5-HT1AR activity, we evaluated the hypothermia response induced by (R)-(+)-8-hydroxy-2-(di-n-propylamino)tetralin hydrobromide (8-OH-DPAT, a selective 5-HT1AR agonist) 24 hs after the infusion of a pool of naked siRNA or NLF-siRNA into dorsal raphe nucleus (DRN, 0.3 μg (0.02 nmoles)/1 μl/2 days). […] Mice were kept in individual cages in experimental room at stable temperature of 22° C. 1 h before the experiment. All experiments were carried out between 10:00 a.m. and 14:00 p.m. Body temperature was measured by inserting a lubricated probe into the rectum 5 min before the reading of the temperature while the mice was freely moving. The readings were obtained with a digital thermometer. A basal value was measured 5 min before and 15, 30, 60 and 120 min after 8-OH-DPAT administration. […] Body temperature was assessed 24 hs after the last application of 5-HT1A-targeting siRNAs into DRN in different groups of mice and in their respective controls. […]
To evaluate the NLF-siRNA effect on the functional features of 5-HT1AR we assayed hypothermia response induced by 8-OH-DPAT and 5-HT release in the medial prefrontral cortex (mPFC). We evaluated the hypothermia response induced by 8-OH-DPAT 24 hs after the infusion of a pool of naked siRNAs or NLF-siRNA (as described in example 2) into dorsal 3rd ventricle (D3V, 30 μg/2.5 μl/1 day).

Data set [4] concerns presynaptic 5-HT1A receptor. The data set can be described thus: Microdialysis of 5-HT in medial prefrontal cortex after acute fluoxetine, i.c.v. siRNA. Format: in vivo, mice. As to conditions: after systemic fluoxetine 20 mg/kg i.p.; siRNA 30 μg i.c.v.; FIG. 9. An excerpt: The increase of extracellular 5-HT produced by reuptake blockade of serotonin transporter (SERT) activates 5-HT1A autoreceptors in the midbrain raphe nuclei, suppressing cell firing and terminal release, an effect that attenuates the extracellular 5-HT increase produced by reuptake blockade. Consequently, the activation of postsynaptic serotonin receptors responsible for the therapeutic effect is lower than expected. It is known that the blockade of these negative feedback mechanisms with 5-HT1A receptor antagonists (i.e pindolol) potentiates the 5-HT increase produced by SSRIs and, therefore, might serve to accelerate the clinical effects of SSRIs.

Data set [5] concerns the target T1, 5-HT1AR. Kind of data set: Microdialysis of 5-HT in mPFC after 8-OH-DPAT, intranasal siRNA. As to conditions: intranasal 15 μg/5 μl in each nostril; 8-OH-DPAT 0.5 mg/kg i.p.; FIG. 12B.
Method: To evaluate 5-HT release, an intracerebral microdyalisis procedure was used as has been described in the state of the art. In brief, the shaft of the probe was made up of 15-mm long, 25-gauge (501 μm OD, 300 μm ID) stainless-steel tubing. The inflow and outflow tubes threaded through the 25 gauge tubing consisted of fused silica capillary tubing of 110 μm OD and 40 μM ID. The upper exposed ends of silica tubing were inserted into 7-mm long, 27 gauge (410 μm OD, 220 μM ID) stainless-steel tubing. Mice were anesthetized with sodium pentobarbital (40 mg/kg, i.p.) and positioned in a stereotaxic frame.
Dialysate samples of 60 μl were collected every 30 min in microcentrifuge vials.
At the completion of dialysis experiments, mice were sacrificed and the brains were immediately removed and frozen at −70° C. Coronal sections (50 μm) of the brain were cut afterwards on a cryostat and stained with cresyl violet, according to standard procedures, for localization of the perfusion site. Only data obtained from animals with histologically correct probe placements were used for subsequent statistical analysis.
The retention time for 5-HT was 3.5-4 min and the detection limit was 2 fmol/sample.
Mice were anesthetized with pentobarbital 40 mg/kg i.p and positioned on their backs. PBS or NLF-siRNA was slowly and gently dropped in alternating nostril with a micropipette tip in 5-ul aliquots.
Data set [6] concerns 5-HT1AR. The data set can be described thus: [3H]8-OH-DPAT autoradiographic binding of 5-HT1AR protein after i.c.v. infusion. Format: in vivo, mice. The following applies: 30 μg/2.5 μl/1 day into D3V. As to the method: To assay the density of 5-HT1AR protein we used [^3H]8-OH-DPAT for the autoradiographic visualization of 5-HT1A receptor sites. The experimental incubation conditions for [^3H]8-OH-DPAT have been previously described in the state of the art. Briefly, frozen tissue sections were thawed and dried, preincubated in 170 mM Tris-HCl pH 7.6, 4 mM CaCl2 and 0.01% ascorbic acid for 30 minutes at room temperature, and then incubated in the same buffer, including 1 nM [^3H]—OH-DPAT (234.0 Ci/mmol) and 10^−5 M pargyline for 60 minutes at room temperature. Non-specific binding was defined as that remaining in the presence of 10^−5 M 5-HT. After incubation and washing, tissue sections were dipped in distilled ice-cold water and dried rapidly under a cold air stream. Tissues were exposed to tritium-sensitive film together with plastic ^3H-standards for 60 days at 4° C.
A set of molecules (vehicle, ns naked siRNA, ns NLF-siRNA, naked siRNA and NLF-siRNA groups), as described in example 3, were infused at 30 μg/2.5 μl/1 day (2.3 nmoles) into dorsal 3rd ventricle (D3V) at the following stereotaxic coordinates (in mm: AP: −2.0, L: 0, DV: −2.1) using similar mice strain and infusion system of example 2. […]

[7] abbreviates: 1 hour after ICV administration, 100 μg.

Regarding “NLF-NS-siRNA-Cy3: non-sense siRNA (SEQ ID NO 69/70) conjugated to nomifensin, antisense strand carrying Cy3 (chain 1 AGUACUGCUUACGAUACGG; chain 2 CCGUAUCGUAAGCAGUACU; conjugated to nomifensin, Cy3 label, positions not given here)”, in data set [1] (setting [7]), the “Cy3 red labeling in TH-positive nigral neurons” value is “can be detected within TH-positive nigral neurons” and the “Cy3 red labeling in gabaergic neurons of the substantia nigra reticulata” value is on record as “not in the gabaergic neurons”. For the same substance, in data set [1] (3 hours after ICV injection), the “Cy3 red intracellular labeling in substantia nigra” value is listed as “any red intracellular labeling can not be detected”. Further, the “Cy3 red labeling in TH-positive noradrenergic neurons” value in data set [2] (setting [7]) is reported as “can be detected mainly within TH-positive noradrenergic neurons”. Further, the “Cy3 red intracellular labeling in locus coeruleus” value in data set [2] (3 hours after ICV injection) is “any red intracellular labeling can not be detected”.
For the substance “ns NLF-siRNA: nonsense siRNA (SEQ ID NO 56/57) conjugated to a group of formula (I) and one targeting agent; control (chain 1 AGUACUGCUUACGAUACGG; chain 2 CCGUAUCGUAAGCAGUACU; further chemistry not given here)”, in the data set with 5-HT1AR [3], the “hypothermia response induced by 8-OH-DPAT” value was “typical curve in the hypothermia response”. Further, the “dyalisate serotonin concentration in medial prefrontal cortex, higher than baseline” value in data set [4] is approximately 50%. For the same substance, in the data set with 5-HT1AR [5], the “extracellular 5-HT levels in mPFC following systemic 8-OH-DPAT” value is recorded as “reduced”. In addition, the “knockdown effect on 5-HT1AR” value with 5-HT1AR [6] is reported as “did not show a knockdown effect”.
